Among the test systems are DMS 273 small cell lung; HOP-18 NSCLC; A549 NSCLC; HCT-116 colon; UACC-62 melanoma; M14 melanoma; OVCAR-3 ovarian; HL-60(TB) leukemia; NCI/ADR-RES ovarian; BT-549 breast.
Holding throughout (experiment): NCI-60 cell line screen, 48 h

Where “and” joins values, the source holds several entries; their conditions need not be identical. Identical values can stand only once.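 96-well plates; 48 h exposure; 5 concentrations. Endpoints by linear interpolation between flanking doses. Not reached: highest tested concentration assigned. GI50 = concentration required for 50% inhibition of growth. TGI is the concentration that stops growth completely.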 Bounds are passed on as bounds.

For `c1ccc(SC23C4C5C6C4C2C6C53)nc1` (stereo unspecified), the TGI in the assay on DMS 273 small cell lung, in the assay with HOP-18 NSCLC, with A549 NSCLC, in the assay on HCT-116 colon, in the assay on UACC-62 melanoma and in the assay on M14 melanoma was more than 100 µM throughout. Besides, the TGI in the assay with OVCAR-3 ovarian was more than 100 µM.
With `Cc1nc(/C=C2\C(=O)C=Cc3ccccc32)c(O)o1`, the TGI with HOP-18 NSCLC, with A549 NSCLC, with HCT-116 colon, in the assay on HL-60(TB) leukemia, with UACC-62 melanoma and with M14 melanoma was more than 100 µM in each case.
Take `CCOc1ccc(NCC2CC/C(=C\c3ccccc3OC)C2=O)cc1` (stereo unspecified): the TGI was 6.76 µM in the assay with DMS 273 small cell lung; 28.8 µM with HOP-18 NSCLC; 35.6 µM with A549 NSCLC; 14.5 µM in the assay with HCT-116 colon; more than 23.7 µM with HL-60(TB) leukemia; 25.5 µM in the assay on UACC-62 melanoma. For the same molecule, the TGI in the assay with M14 melanoma stood at 12.1 µM; with OVCAR-3 ovarian, 17.1 µM.
Take `COC(=O)/C(C#N)=C(\N)C(Cl)(Cl)Cl`: the TGI in the assay with DMS 273 small cell lung was 12.4 µM; in the assay on A549 NSCLC, 12.7 µM; with HCT-116 colon, 2.25 µM; in the assay with HL-60(TB) leukemia, 1.32 µM; in the assay with UACC-62 melanoma it was 2.86 µM; with M14 melanoma, 3.31 µM. Also, in the assay with OVCAR-3 ovarian, the TGI stood at 12.9 µM.
Turning to `Cc1ccc(S(=O)(=O)OC(COC(=O)c2ccccc2)C(OS(=O)(=O)c2ccc(C)cc2)C(OS(=O)(=O)c2ccc(C)cc2)C(COC(=O)c2ccccc2)OS(=O)(=O)c2ccc(C)cc2)cc1` (stereo unspecified), the TGI with DMS 273 small cell lung was more than 100 µM; in the assay with A549 NSCLC, more than 100 µM; in the assay on HCT-116 colon it was more than 100 µM; in the assay on HL-60(TB) leukemia, more than 100 µM; with UACC-62 melanoma, more than 10 µM; in the assay on M14 melanoma, more than 100 µM. In the assay on OVCAR-3 ovarian, this molecule showed a TGI of more than 100 µM.
With `COc1cc(C(C)c2cc3c(cc2OCCNC(=O)COc2cc4c(cc2C(C)c2cc(OC)c(OC)c(OC)c2)OCO4)OCO3)cc(OC)c1OC` (stereo unspecified), the TGI in the assay with DMS 273 small cell lung, with A549 NSCLC, with HCT-116 colon, in the assay with HL-60(TB) leukemia, with UACC-62 melanoma and in the assay with M14 melanoma was more than 100 µM throughout. Further, the TGI in the assay on OVCAR-3 ovarian was more than 100 µM.
On to `CCC1(OC(=O)CN)C(=O)OCc2c1cc1n(c2=O)Cc2cc3ccccc3nc2-1` (stereo unspecified), for which the TGI in the assay on HOP-18 NSCLC is 28.4 µM; with A549 NSCLC it was 2.28 µM; in the assay with HCT-116 colon it was 0.265 µM and 0.431 µM; in the assay on HL-60(TB) leukemia it was 0.084 µM and < 0.0132 µM; with UACC-62 melanoma it was 0.0895 µM and 0.0596 µM; with M14 melanoma, 0.846 µM and 0.174 µM. For the same molecule, the TGI in the assay with OVCAR-3 ovarian was 0.731 µM and 0.557 µM; with NCI/ADR-RES ovarian it was 0.137 µM and 0.0776 µM. Also, the GI50 is 0.0472 µM with A549 NSCLC; 0.0519 µM and 0.0222 µM with HCT-116 colon; 0.00787 µM in the assay with UACC-62 melanoma; 0.0179 µM in the assay with M14 melanoma; 0.308 µM in the assay with OVCAR-3 ovarian; 0.0173 µM in the assay on NCI/ADR-RES ovarian. The GI50 in the assay with BT-549 breast was 0.459 µM.
Take `Cc1cc(C)c(C(=O)O)c(SSc2cc(C)cc(C)c2C(=O)O)c1`: the TGI in the assay with DMS 273 small cell lung, in the assay on A549 NSCLC, in the assay on HL-60(TB) leukemia and in the assay on UACC-62 melanoma was more than 100 µM throughout.
With `CCOC(=O)C(Cc1ccccc1)NC(=O)c1[nH]cnc1/N=N/N(C)C` (stereo unspecified), the TGI in the assay on DMS 273 small cell lung, in the assay with A549 NSCLC, in the assay on HCT-116 colon, with HL-60(TB) leukemia, in the assay on UACC-62 melanoma and with M14 melanoma was more than 100 µM in each case. Also, the TGI in the assay with OVCAR-3 ovarian is more than 100 µM.
In the case of `O=C1CNC(=O)c2[nH]cnc2N1`, the TGI in the assay with DMS 273 small cell lung, with HOP-18 NSCLC, in the assay with A549 NSCLC, in the assay with HL-60(TB) leukemia, in the assay on UACC-62 melanoma and with M14 melanoma was more than 100 µM in each case. This molecule also returned a TGI in the assay on OVCAR-3 ovarian of more than 100 µM.
Take `C=CCC1(C(=O)OC(C)(C)C)C(OC)=C(C(=O)OC(C)(C)C)C2C1C(C(=O)OC(C)(C)C)=C(OC)C2(CC=C)C(=O)OC(C)(C)C` (stereo unspecified): the TGI with HOP-18 NSCLC, in the assay with A549 NSCLC, in the assay with HL-60(TB) leukemia, in the assay on UACC-62 melanoma, in the assay with M14 melanoma and in the assay with OVCAR-3 ovarian was more than 100 µM throughout.
In the case of `CC1=NOC(=O)/C1=C/c1ccc([N+](=O)[O-])cc1`, the TGI with DMS 273 small cell lung, with HOP-18 NSCLC, in the assay on A549 NSCLC, in the assay with HCT-116 colon, with HL-60(TB) leukemia and with UACC-62 melanoma was more than 100 µM in each case. In addition, the TGI with M14 melanoma and in the assay with OVCAR-3 ovarian was more than 100 µM each time.
With `COC(=O)C(CC(=O)Nc1ccc(Cl)c(Cl)c1)C(=O)C(=O)Nc1ccc(Cl)c(Cl)c1` (stereo unspecified), the TGI in the assay with DMS 273 small cell lung, in the assay with HOP-18 NSCLC, in the assay on A549 NSCLC, with HCT-116 colon, in the assay with HL-60(TB) leukemia and in the assay with UACC-62 melanoma was more than 100 µM in each case. The TGI in the assay with M14 melanoma and with OVCAR-3 ovarian was more than 100 µM each time.
Consider `COc1ccc(C(=O)CC2=Nc3nnc(CCCCCCCc4nnc5n4C(=O)C(CC(=O)c4ccc(OC)cc4)=N5)n3C2=O)cc1`, for which the TGI in the assay with HOP-18 NSCLC, in the assay on A549 NSCLC, with HCT-116 colon, in the assay with HL-60(TB) leukemia, in the assay with UACC-62 melanoma and with M14 melanoma was more than 100 µM each time. In the assay on OVCAR-3 ovarian, the TGI is more than 100 µM.
Regarding `CC(=O)NNc1nc(C)c(C(=O)/C=C/c2ccc(Cl)cc2)s1`, the TGI in the assay with DMS 273 small cell lung, in the assay on HOP-18 NSCLC, in the assay with A549 NSCLC, in the assay on HL-60(TB) leukemia, with UACC-62 melanoma and in the assay with OVCAR-3 ovarian was more than 100 µM in each case.
Turning to `CCCCc1c2cnccc2c(CCCC)c2c1[nH]c1ccccc12`, the TGI is 27.9 µM in the assay with DMS 273 small cell lung; 24.8 µM with HOP-18 NSCLC; 29.5 µM in the assay on A549 NSCLC; 18.1 µM in the assay with HCT-116 colon; 23.7 µM in the assay with UACC-62 melanoma; 41.1 µM with M14 melanoma. The TGI with OVCAR-3 ovarian was 19.6 µM.
As for `CCCCCCCC/C=C1\CCC(CN2CCOCC2)C1=O` (stereo unspecified), the TGI worked out at 25.8 µM in the assay on HOP-18 NSCLC; 24.7 µM in the assay with A549 NSCLC; 13.6 µM in the assay with HCT-116 colon; 14.8 µM in the assay with HL-60(TB) leukemia; 12.6 µM with UACC-62 melanoma; 16.7 µM with M14 melanoma. The TGI was 14.8 µM in the assay on OVCAR-3 ovarian, 14.4 µM with NCI/ADR-RES ovarian and 22.7 µM with BT-549 breast.

For the origin of these results see PubChem BioAssay (NCI).
